Test results from ChEMBL document CHEMBL3046378, “3-(6-Chloronicotinyl)-2-nitromethylene-thiazolidine as a New Class of Insecticide Acting against Lepidoptera Species” (1992).
Calls of active or inactive are those of the source. The rule behind the calls is not given here.

Legend:
Cnaphalocrocis medinalis = experiment: Insecticidal activity against Cnaphalocrocis medinalis measured 5 days after artificial infestation; assay type: functional
Plutella xylostella = experiment: Insecticidal activity against Plutella xylostella (diamondback moth) measured 5 days after artificial infestation; assay type: functional
Nephotettix cincticeps = experiment: Insecticidal activity against Nephotettix cincticeps (green rice leafhopper) measured 5 days after artificial infestation; assay type: functional
Spodoptera litura [1] = experiment: Insecticidal activity against Spodoptera litura measured 5 days after artificial infestation; assay type: functional
Spodoptera litura [2] = experiment: Insecticidal activity against Spodoptera litura at 1000 ppm measured 5 days after artificial infestation; assay type: functional, organism-based

O=[N+]([O-])/C=C1\NCCN1Cc1ccc(Cl)nc1 showed an LC90 (Cnaphalocrocis medinalis) of 200 ppm, an LC90 (Plutella xylostella) of 40 ppm and an LC90 (Nephotettix cincticeps) of 0.32 ppm. For the same compound, the LC90 (Spodoptera litura [1]) was 8 ppm.

O=[N+]([O-])/N=c1\sccn1Cc1ccc(Cl)nc1 was tested, and the LC90 (Nephotettix cincticeps) was 0.32 ppm and the LC90 (Spodoptera litura [1]) was 1000 ppm.

O=[N+]([O-])/N=C1\SCCN1Cc1ccc(Cl)nc1 showed an LC90 (Nephotettix cincticeps) of 1.6 ppm and an LC90 (Spodoptera litura [1]) of 200 ppm.

With O=[N+]([O-])/N=C1\NCCN1Cc1ccc(Cl)nc1 [IMIDACLOPRID] the LC90 (Cnaphalocrocis medinalis) was 200 ppm, the LC90 (Plutella xylostella) was 200 ppm and the LC90 (Nephotettix cincticeps) was 0.32 ppm. It also gave an LC90 (Spodoptera litura [1]) of 40 ppm.

With O=[N+]([O-])/C=C1\NCCS1 [2-(NITROMETHYLENE)THIAZOLIDINE] the Activity (Spodoptera litura [2]) was “inactive” and the LC90 (Nephotettix cincticeps) was 1000 ppm.

In the case of O=[N+]([O-])/C=C1\OCCN1Cc1ccc(Cl)nc1, the LC90 (Nephotettix cincticeps) is reported as 8 ppm and the LC90 (Spodoptera litura [1]) is reported as 1000 ppm.

For O=[N+]([O-])/C=C1\CCCN1Cc1ccc(Cl)nc1, the LC90 (Nephotettix cincticeps) was 1.6 ppm and the LC90 (Spodoptera litura [1]) was 200 ppm.

For O=[N+]([O-])C=C1NCCCS1, the LC90 (Cnaphalocrocis medinalis) was 200 ppm, the LC90 (Plutella xylostella) was 1000 ppm and the LC90 (Nephotettix cincticeps) was 8 ppm. It also gave an LC90 (Spodoptera litura [1]) of 40 ppm.

Compound O=[N+]([O-])/C=C1\SCCN1Cc1ccc(Cl)nc1 has an LC90 (Cnaphalocrocis medinalis) of 8 ppm, an LC90 (Plutella xylostella) of 1.6 ppm and an LC90 (Nephotettix cincticeps) of 0.32 ppm. The LC90 (Spodoptera litura [1]) was 1.6 ppm.
